Measured values from article PMC12199309, “Isolation, structural elucidation, and integrated biological and computational evaluation of antidiabetic labdane diterpenes from Curcuma zedoaria rhizomes” (RSC Advances, 2025).
Where two headings read alike, the source gives them in different places.

Key:
[1] = target: T1, α-Glucosidase (EC 3.2.1.20) (Saccharomyces cerevisiae, UniProt P53341); experiment: biochemical; conditions: for inhibition at 10 µM / inhibition at 25 µM / inhibition at 50 µM / inhibition at 100 µM / inhibition at 1 µM / inhibition at 2.5 µM / inhibition at 5 µM: read-out: Inhibition rate (%)
T1 construct: purchased Sigma Chemical Co. (St. Louis, MO, USA)
T1 sequence (P53341 whole entry): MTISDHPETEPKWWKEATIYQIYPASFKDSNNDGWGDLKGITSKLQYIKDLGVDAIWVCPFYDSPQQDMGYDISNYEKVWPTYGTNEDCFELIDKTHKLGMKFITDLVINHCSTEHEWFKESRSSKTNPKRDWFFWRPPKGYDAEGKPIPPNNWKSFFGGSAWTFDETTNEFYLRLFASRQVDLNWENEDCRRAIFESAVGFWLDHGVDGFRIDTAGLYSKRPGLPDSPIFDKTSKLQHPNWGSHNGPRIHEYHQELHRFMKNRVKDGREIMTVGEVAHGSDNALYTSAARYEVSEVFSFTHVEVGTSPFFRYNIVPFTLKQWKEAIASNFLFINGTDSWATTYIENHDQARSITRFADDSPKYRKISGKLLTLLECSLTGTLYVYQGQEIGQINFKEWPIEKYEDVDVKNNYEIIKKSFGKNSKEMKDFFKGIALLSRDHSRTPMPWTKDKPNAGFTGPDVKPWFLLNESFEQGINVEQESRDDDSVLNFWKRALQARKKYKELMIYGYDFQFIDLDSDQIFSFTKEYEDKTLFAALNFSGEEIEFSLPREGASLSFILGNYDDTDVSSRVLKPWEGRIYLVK
Method: Five isolated compounds were examined to assess their inhibitory effect on α-glucosidase at concentrations ranging from 1 to 100 μM. […]
Optical values were conducted on a Shimadzu UV-1800 spectrophotometer (Shimadzu Pte., Ltd, Singapore). IR spectra were measured with a Shimadzu IR-408 infrared spectrometer (Shimadzu Pte., Ltd, Singapore). NMR spectra were acquired on a Bruker Avance III 500 spectrometer Bruker BioSpin AG, Bangkok, (Thailand), with chemical shifts (δ) referenced to deuterated solvents. HR-ESI-MS data were obtained on Bruker micrOTOFQII mass spectrometer (Bruker Singapore Pte., Ltd, Singapore). Column chromatography utilized silica gel 60 (0.06–0.2 mm; Scharlau, Barcelona, Spain) and LiChroprep RP-18 (40–63 μm; Merck KGaA, Darmstadt, Germany). Thin-layer chromatography (TLC) employed Kieselgel 60 F254 or RP-18 F254 plates from Merck KGaA (Darmstadt, Germany). α-Glucosidase (EC 3.2.1.20), derived from Saccharomyces cerevisiae (750 UN), along with p-nitrophenyl-α-D-glucopyranoside, was procured from Sigma Chemical Co. (St. Louis, MO, USA). […] All other chemicals and solvents were of the highest purity or analytical grade.
The inhibitory activity of α-glucosidase was assessed using a modified method based on Kurihara et al.[37] The reaction was initiated by adding 50 μL of 1.5 mM p-nitrophenyl-α-D-glucopyranoside and 50 μL of 0.1 U mL^−1 α-glucosidase in 0.01 M phosphate buffer (pH 7.0) to 625 μL of sample solution. The reaction was conducted at 37 °C for 30 minutes and terminated with 0.1 M Na2CO3. Enzymatic activity was quantified by measuring absorbance at a wavelength of 401 nm. One unit of α-glucosidase activity was defined as the amount of enzyme that liberates […] p-nitrophenol per minute. The IC50 value represented the inhibitor concentration that suppressed 50% of enzyme activity.

[2] = target: T1, α-Glucosidase (EC 3.2.1.20); experiment: biochemical; conditions: read-out: Inhibition rate (%)
[3] = α-glucosidase inhibition, 37 °C, 30 minutes, pH 7.0, read-out: IC50

Which IC50 [1] does the source give for `C=C1CCC2C(C)(C)CCCC2(C)C1CC=C(COC(C)=O)C(=O)O` (centres unmarked) [CZ1, zedolabdin A] here?
The IC50 was 14.1 µM.

And the inhibition at 10 µM [1]?
Its inhibition at 10 µM is 29.5 ± 1.8%.

What about the inhibition at 25 µM [1] of the same compound?
Its inhibition at 25 µM is 81.4 ± 0.5%.

What about the inhibition at 50 µM [1] of the same compound?
The inhibition at 50 µM was 96.2 ± 0.4%.

What about the inhibition at 100 µM [1] of the same compound?
Its inhibition at 100 µM is 98.8 ± 0.4%.

For `C=C1CCC2C(C)(C)CCCC2(C)C1CC=C(CO)C(=O)O` (centres unmarked) [CZ2, (E)-14-hydroxy-15-norlabda-8(17),12-dien-16-oic acid], which IC50 [1] is on record?
The IC50 was 25.5 µM.

What about the inhibition at 10 µM [1] of the same compound?
The inhibition at 10 µM was 24.6 ± 4.1%.

What about the inhibition at 25 µM [1] of the same compound?
Its inhibition at 25 µM is 46.3 ± 3.1%.

What about the inhibition at 50 µM [1] of the same compound?
The inhibition at 50 µM was 72.4 ± 2%.

And the inhibition at 100 µM [1]?
Its inhibition at 100 µM is 99.1 ± 2%.

`C=C1CC[C@H]2C(C)(C)CCC[C@]2(C)[C@H]1/C=C/C1=C(O)COC1=O` [CZ3, zerumin] was tested. Which inhibition at 1 µM [1] did it give?
The inhibition at 1 µM was 6.9 ± 4%.

And the inhibition at 2.5 µM [1]?
Its inhibition at 2.5 µM is 20.8 ± 3.6%.

What about the inhibition at 5 µM [1] of the same compound?
Its inhibition at 5 µM is 35.2 ± 1.9%.

What about the inhibition at 10 µM [1] of the same compound?
The inhibition at 10 µM was 73.4 ± 2.3%.

What about the IC50 [1, 3] of the same compound?
Its IC50 is 6.2 µM.

Which inhibition at 1 µM [1] does the source give for `C=C1CC[C@H]2C(C)(C)CCC[C@]2(C)[C@H]1CCC1=CC(O)OC1=O` (some centres unmarked) [CZ4, coronarin C] here?
Its inhibition at 1 µM is 13.7 ± 5.4%.

And the inhibition at 2.5 µM [1]?
Its inhibition at 2.5 µM is 34 ± 0.9%.

And the inhibition at 5 µM [1]?
The inhibition at 5 µM was 81 ± 1.7%.

And the inhibition at 10 µM [1]?
Its inhibition at 10 µM is 95.4 ± 1.5%.

And the IC50 [1, 3]?
Its IC50 is 3 µM.

`C=C1CCC2C(C)(C)CCCC2(C)C1C=CC(=O)O` (centres unmarked) [CZ5, (E)-14,15,16-trinorlabda-8(17),11-dien-13-oic acid] was tested. Which IC50 [1] did it give?
The IC50 was 37.6 µM.

And the inhibition at 10 µM [1]?
The inhibition at 10 µM was 3.5 ± 3.6%.

And the inhibition at 25 µM [1]?
Its inhibition at 25 µM is 16.6 ± 3.8%.

And the inhibition at 50 µM [1]?
Its inhibition at 50 µM is 75.8 ± 4.4%.

And the inhibition at 100 µM [1]?
The inhibition at 100 µM was 99.8 ± 0.2%.

`C[C@H]1O[C@H](O[C@H]2[C@H](O)[C@@H](O)[C@@H](O[C@H]3[C@H](O)[C@@H](O)C(O)O[C@@H]3CO)O[C@@H]2CO)[C@H](O)[C@@H](O)[C@@H]1N[C@H]1C=C(CO)[C@@H](O)[C@H](O)[C@H]1O` (some centres unmarked) [PC, acarbose, reference compound] was tested. Which inhibition at 250 µM [2] did it give?
Its inhibition at 250 µM is 66 ± 1.2%.

And the inhibition at 25 µM [1]?
Its inhibition at 25 µM is 8.6 ± 1.1%.

And the inhibition at 50 µM [1]?
The inhibition at 50 µM was 19.7 ± 1.3%.

And the inhibition at 100 µM [1]?
The inhibition at 100 µM was 32.1 ± 1.7%.
